{"source": "PubChem BioAssay AID2060898", "about": "(Molecular Pharmacology Branch, DTP, NCI, 2025)", "test_system": "616215-338-R-J1-PDC complex spheroid viability", "assay": "Anticancer human tumor 616215-338-R-J1-PDC patient-derived colon adenocarcinoma cell line growth inhibition [RAS]", "settings": "for IC50: curve of first compound; for viability, T/C: stronger effect = lower value", "outline": "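Tumour cells grown as complex spheroids with HUVEC endothelial cells and mesenchymal stem cells, treated with RAS pathway inhibitor combinations. Each agent spans half-log steps from near clinical Cmax, or 10 microM where Cmax is unknown.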"}
{"compound": "C=CC(=O)N1CCN(c2nc(OCC3CCCN3C)nc3c(F)c(-c4nc(N)cc(C)c4C(F)(F)F)c(Cl)cc23)C(C)C1", "note": "(centres undefined) + CCn1c(-c2cc(N3CCN(C)CC3)cnc2C(C)OC)c2c3cc(ccc31)-c1csc(n1)CC(NC(=O)C1CC1C)C(=O)N1CCCC(N1)C(=O)OCC(C)(C)C2;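 note: spheroids exposed to agents for seven days before viability readout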;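 for viability, T/C: 100% = DMSO vehicle control viability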", "values": [{"measurement": "IC50", "setting": "second compound 0.000949 µM", "result": "> 1000", "unit": "nM"}, {"measurement": "IC50", "setting": "second compound 0.003 µM", "result": "> 1000", "unit": "nM"}, {"measurement": "IC50", "setting": "second compound 0.00949 µM", "result": "> 1000", "unit": "nM"}, {"measurement": "IC50", "setting": "second compound 0.03 µM", "result": "< 3.16", "unit": "nM"}, {"measurement": "IC50", "setting": "second compound 0.0949 µM", "result": "< 3.16", "unit": "nM"}, {"measurement": "IC50", "setting": "second compound 0.3 µM", "result": "< 3.16", "unit": "nM"}, {"measurement": "viability, T/C", "setting": "second compound 0.000949 µM, first compound 0.00316 µM", "result": 117, "unit": "%"}, {"measurement": "viability, T/C", "setting": "second compound 0.000949 µM, first compound 0.01 µM", "result": 103, "unit": "%"}, {"measurement": "viability, T/C", "setting": "second compound 0.000949 µM, first compound 0.0316 µM", "result": 108, "unit": "%"}, {"measurement": "viability, T/C", "setting": "second compound 0.000949 µM, first compound 0.1 µM", "result": 110, "unit": "%"}, {"measurement": "viability, T/C", "setting": "second compound 0.000949 µM, first compound 0.316 µM", "result": 109, "unit": "%"}, {"measurement": "viability, T/C", "setting": "second compound 0.000949 µM, first compound 1 µM", "result": 107, "unit": "%"}, {"measurement": "viability, T/C", "setting": "second compound 0.003 µM, first compound 0.00316 µM", "result": 114, "unit": "%"}, {"measurement": "viability, T/C", "setting": "second compound 0.003 µM, first compound 0.01 µM", "result": 109, "unit": "%"}, {"measurement": "viability, T/C", "setting": "second compound 0.003 µM, first compound 0.0316 µM", "result": 111, "unit": "%"}, {"measurement": "viability, T/C", "setting": "second compound 0.003 µM, first compound 0.1 µM", "result": 109, "unit": "%"}, {"measurement": "viability, T/C", "setting": "second compound 0.003 µM, first compound 0.316 µM", "result": 113, "unit": "%"}, {"measurement": "viability, T/C", "setting": "second compound 0.003 µM, first compound 1 µM", "result": 103, "unit": "%"}, {"measurement": "viability, T/C", "setting": "second compound 0.00949 µM, first compound 0.00316 µM", "result": 87.8, "unit": "%"}, {"measurement": "viability, T/C", "setting": "second compound 0.00949 µM, first compound 0.01 µM", "result": 77.8, "unit": "%"}, {"measurement": "viability, T/C", "setting": "second compound 0.00949 µM, first compound 0.0316 µM", "result": 81.5, "unit": "%"}, {"measurement": "viability, T/C", "setting": "second compound 0.00949 µM, first compound 0.1 µM", "result": 66.7, "unit": "%"}, {"measurement": "viability, T/C", "setting": "second compound 0.00949 µM, first compound 0.316 µM", "result": 73.8, "unit": "%"}, {"measurement": "viability, T/C", "setting": "second compound 0.00949 µM, first compound 1 µM", "result": 69.3, "unit": "%"}, {"measurement": "viability, T/C", "setting": "second compound 0.03 µM, first compound 0.00316 µM", "result": 43, "unit": "%"}, {"measurement": "viability, T/C", "setting": "second compound 0.03 µM, first compound 0.01 µM", "result": 55.5, "unit": "%"}, {"measurement": "viability, T/C", "setting": "second compound 0.03 µM, first compound 0.0316 µM", "result": 49.3, "unit": "%"}, {"measurement": "viability, T/C", "setting": "second compound 0.03 µM, first compound 0.1 µM", "result": 42.7, "unit": "%"}, {"measurement": "viability, T/C", "setting": "second compound 0.03 µM, first compound 0.316 µM", "result": 55.4, "unit": "%"}, {"measurement": "viability, T/C", "setting": "second compound 0.03 µM, first compound 1 µM", "result": 49.4, "unit": "%"}, {"measurement": "viability, T/C", "setting": "second compound 0.0949 µM, first compound 0.00316 µM", "result": 35, "unit": "%"}, {"measurement": "viability, T/C", "setting": "second compound 0.0949 µM, first compound 0.01 µM", "result": 30.8, "unit": "%"}, {"measurement": "viability, T/C", "setting": "second compound 0.0949 µM, first compound 0.0316 µM", "result": 42.2, "unit": "%"}, {"measurement": "viability, T/C", "setting": "second compound 0.0949 µM, first compound 0.1 µM", "result": 37.5, "unit": "%"}, {"measurement": "viability, T/C", "setting": "second compound 0.0949 µM, first compound 0.316 µM", "result": 49.4, "unit": "%"}, {"measurement": "viability, T/C", "setting": "second compound 0.0949 µM, first compound 1 µM", "result": 35.9, "unit": "%"}, {"measurement": "viability, T/C", "setting": "second compound 0.3 µM, first compound 0.00316 µM", "result": 40.3, "unit": "%"}, {"measurement": "viability, T/C", "setting": "second compound 0.3 µM, first compound 0.01 µM", "result": 31.8, "unit": "%"}, {"measurement": "viability, T/C", "setting": "second compound 0.3 µM, first compound 0.0316 µM", "result": 36, "unit": "%"}, {"measurement": "viability, T/C", "setting": "second compound 0.3 µM, first compound 0.1 µM", "result": 42.6, "unit": "%"}, {"measurement": "viability, T/C", "setting": "second compound 0.3 µM, first compound 0.316 µM", "result": 42.8, "unit": "%"}, {"measurement": "viability, T/C", "setting": "second compound 0.3 µM, first compound 1 µM", "result": 43.4, "unit": "%"}]}
{"compound": "CC1(C)CCC(Nc2ncc(C(F)(F)F)c(-c3c[nH]c4c(P(C)(C)=O)c(C#N)ccc34)n2)CN1", "note": "(centres undefined) + CCn1c(-c2cc(N3CCN(C)CC3)cnc2C(C)OC)c2c3cc(ccc31)-c1csc(n1)CC(NC(=O)C1CC1C)C(=O)N1CCCC(N1)C(=O)OCC(C)(C)C2", "values": [{"measurement": "IC50", "setting": "second compound 0.000949 µM", "result": 17.7, "unit": "nM"}, {"measurement": "IC50", "setting": "second compound 0.003 µM", "result": 14.1, "unit": "nM"}, {"measurement": "IC50", "setting": "second compound 0.00949 µM", "result": 7.66, "unit": "nM"}, {"measurement": "IC50", "setting": "second compound 0.03 µM", "result": 7.94, "unit": "nM"}, {"measurement": "IC50", "setting": "second compound 0.0949 µM", "result": "< 0.949", "unit": "nM"}, {"measurement": "IC50", "setting": "second compound 0.3 µM", "result": "< 0.949", "unit": "nM"}, {"measurement": "viability, T/C", "setting": "second compound 0.000949 µM, first compound 0.000949 µM", "result": 117, "unit": "%"}, {"measurement": "viability, T/C", "setting": "second compound 0.000949 µM, first compound 0.003 µM", "result": 92.4, "unit": "%"}, {"measurement": "viability, T/C", "setting": "second compound 0.000949 µM, first compound 0.00949 µM", "result": 65.2, "unit": "%"}, {"measurement": "viability, T/C", "setting": "second compound 0.000949 µM, first compound 0.03 µM", "result": 35.7, "unit": "%"}, {"measurement": "viability, T/C", "setting": "second compound 0.000949 µM, first compound 0.0949 µM", "result": 32.2, "unit": "%"}, {"measurement": "viability, T/C", "setting": "second compound 0.000949 µM, first compound 0.3 µM", "result": 39.1, "unit": "%"}, {"measurement": "viability, T/C", "setting": "second compound 0.003 µM, first compound 0.000949 µM", "result": 122, "unit": "%"}, {"measurement": "viability, T/C", "setting": "second compound 0.003 µM, first compound 0.003 µM", "result": 98.1, "unit": "%"}, {"measurement": "viability, T/C", "setting": "second compound 0.003 µM, first compound 0.00949 µM", "result": 56.4, "unit": "%"}, {"measurement": "viability, T/C", "setting": "second compound 0.003 µM, first compound 0.03 µM", "result": 37, "unit": "%"}, {"measurement": "viability, T/C", "setting": "second compound 0.003 µM, first compound 0.0949 µM", "result": 37.5, "unit": "%"}, {"measurement": "viability, T/C", "setting": "second compound 0.003 µM, first compound 0.3 µM", "result": 39.6, "unit": "%"}, {"measurement": "viability, T/C", "setting": "second compound 0.00949 µM, first compound 0.000949 µM", "result": 82.9, "unit": "%"}, {"measurement": "viability, T/C", "setting": "second compound 0.00949 µM, first compound 0.003 µM", "result": 73.8, "unit": "%"}, {"measurement": "viability, T/C", "setting": "second compound 0.00949 µM, first compound 0.00949 µM", "result": 44.6, "unit": "%"}, {"measurement": "viability, T/C", "setting": "second compound 0.00949 µM, first compound 0.03 µM", "result": 38.6, "unit": "%"}, {"measurement": "viability, T/C", "setting": "second compound 0.00949 µM, first compound 0.0949 µM", "result": 37.1, "unit": "%"}, {"measurement": "viability, T/C", "setting": "second compound 0.00949 µM, first compound 0.3 µM", "result": 40.8, "unit": "%"}, {"measurement": "viability, T/C", "setting": "second compound 0.03 µM, first compound 0.000949 µM", "result": 65.7, "unit": "%"}, {"measurement": "viability, T/C", "setting": "second compound 0.03 µM, first compound 0.003 µM", "result": 61.7, "unit": "%"}, {"measurement": "viability, T/C", "setting": "second compound 0.03 µM, first compound 0.00949 µM", "result": 47.6, "unit": "%"}, {"measurement": "viability, T/C", "setting": "second compound 0.03 µM, first compound 0.03 µM", "result": 32.4, "unit": "%"}, {"measurement": "viability, T/C", "setting": "second compound 0.03 µM, first compound 0.0949 µM", "result": 39, "unit": "%"}, {"measurement": "viability, T/C", "setting": "second compound 0.03 µM, first compound 0.3 µM", "result": 40.1, "unit": "%"}, {"measurement": "viability, T/C", "setting": "second compound 0.0949 µM, first compound 0.000949 µM", "result": 45.8, "unit": "%"}, {"measurement": "viability, T/C", "setting": "second compound 0.0949 µM, first compound 0.003 µM", "result": 44.3, "unit": "%"}, {"measurement": "viability, T/C", "setting": "second compound 0.0949 µM, first compound 0.00949 µM", "result": 39.2, "unit": "%"}, {"measurement": "viability, T/C", "setting": "second compound 0.0949 µM, first compound 0.03 µM", "result": 39.3, "unit": "%"}, {"measurement": "viability, T/C", "setting": "second compound 0.0949 µM, first compound 0.0949 µM", "result": 36.9, "unit": "%"}, {"measurement": "viability, T/C", "setting": "second compound 0.0949 µM, first compound 0.3 µM", "result": 32.9, "unit": "%"}, {"measurement": "viability, T/C", "setting": "second compound 0.3 µM, first compound 0.000949 µM", "result": 37.5, "unit": "%"}, {"measurement": "viability, T/C", "setting": "second compound 0.3 µM, first compound 0.003 µM", "result": 46, "unit": "%"}, {"measurement": "viability, T/C", "setting": "second compound 0.3 µM, first compound 0.00949 µM", "result": 42, "unit": "%"}, {"measurement": "viability, T/C", "setting": "second compound 0.3 µM, first compound 0.03 µM", "result": 32.6, "unit": "%"}, {"measurement": "viability, T/C", "setting": "second compound 0.3 µM, first compound 0.0949 µM", "result": 38.5, "unit": "%"}, {"measurement": "viability, T/C", "setting": "second compound 0.3 µM, first compound 0.3 µM", "result": 39.2, "unit": "%"}]}
